How the values were obtained:
[1] = molecular target: T1, human fibrinogen (Homo sapiens, UniProt P02671+P02675+P02679); test: Composition of amino acids in fibrinogen; format: biochemical; conditions: Yoshixol 4 μl
T1 sequence (P02671 20-629 limits assumed): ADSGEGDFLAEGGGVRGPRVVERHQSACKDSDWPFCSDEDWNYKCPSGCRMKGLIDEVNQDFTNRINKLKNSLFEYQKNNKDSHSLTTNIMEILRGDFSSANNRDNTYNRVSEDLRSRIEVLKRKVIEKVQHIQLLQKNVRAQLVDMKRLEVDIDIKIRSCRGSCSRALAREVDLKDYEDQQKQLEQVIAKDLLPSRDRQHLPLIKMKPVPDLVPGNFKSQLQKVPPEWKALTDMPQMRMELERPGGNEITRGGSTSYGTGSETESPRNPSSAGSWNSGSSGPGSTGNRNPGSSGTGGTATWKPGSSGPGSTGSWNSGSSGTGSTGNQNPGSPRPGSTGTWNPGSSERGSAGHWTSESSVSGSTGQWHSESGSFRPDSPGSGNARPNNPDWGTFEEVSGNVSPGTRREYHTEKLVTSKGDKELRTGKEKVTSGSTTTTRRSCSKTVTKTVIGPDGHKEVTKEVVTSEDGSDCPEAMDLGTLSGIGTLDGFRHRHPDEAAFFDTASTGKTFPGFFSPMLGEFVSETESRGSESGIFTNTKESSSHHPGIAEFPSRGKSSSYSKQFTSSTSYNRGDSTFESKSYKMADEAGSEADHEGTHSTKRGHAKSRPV
T1 sequence (P02675 31-491): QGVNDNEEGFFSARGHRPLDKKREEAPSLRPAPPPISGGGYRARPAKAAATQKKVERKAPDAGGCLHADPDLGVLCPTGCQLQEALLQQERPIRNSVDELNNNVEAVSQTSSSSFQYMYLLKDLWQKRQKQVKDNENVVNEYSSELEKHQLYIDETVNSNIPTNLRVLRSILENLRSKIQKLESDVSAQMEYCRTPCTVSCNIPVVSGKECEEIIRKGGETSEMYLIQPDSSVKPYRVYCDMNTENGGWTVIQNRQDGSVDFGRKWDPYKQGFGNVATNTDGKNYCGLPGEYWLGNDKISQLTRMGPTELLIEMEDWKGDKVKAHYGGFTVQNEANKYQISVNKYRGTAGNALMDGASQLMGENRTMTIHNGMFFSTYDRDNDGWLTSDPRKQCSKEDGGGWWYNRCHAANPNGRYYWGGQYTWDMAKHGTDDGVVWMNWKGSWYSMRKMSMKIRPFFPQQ
T1 sequence (P02679 27-433 limits assumed): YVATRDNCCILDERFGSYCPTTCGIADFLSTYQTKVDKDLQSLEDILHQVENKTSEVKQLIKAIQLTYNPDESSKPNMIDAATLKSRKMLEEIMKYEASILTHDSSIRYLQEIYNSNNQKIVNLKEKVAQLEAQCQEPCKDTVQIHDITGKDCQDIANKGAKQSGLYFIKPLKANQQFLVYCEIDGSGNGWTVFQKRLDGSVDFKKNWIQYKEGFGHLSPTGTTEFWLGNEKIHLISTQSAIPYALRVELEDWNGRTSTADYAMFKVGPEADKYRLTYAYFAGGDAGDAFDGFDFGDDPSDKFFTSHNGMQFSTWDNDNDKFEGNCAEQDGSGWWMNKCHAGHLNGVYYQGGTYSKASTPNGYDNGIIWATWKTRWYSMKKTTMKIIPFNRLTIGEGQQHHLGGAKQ
Experimental: Changes in composition of amino acids were analyzed by use of 1 ml of human blood serum, 1 ml of human fibrinogen (concentration of 160 mg/dl), 1 ml of human thrombin before and after treatment with Yoshixol (4 μl). The total amino acids in the human blood serum which was treated with Yoshixol decreased by 41%. And, ratio of each composition was altered after the treatment so that as an example the concentration of phosphoserine increased about 20 times which level was from 7.2 picomole to 164.8 picomole.

[2] = tested on: human blood coagulation and fibrin formation; test: Human blood coagulation and fibrin formation, thromboelastgram and scanning electron microscopy; format: biochemical
Experimental: Effect of Yoshixol (4 μl) on human blood coagulation and fibrin formation (thrombin was added to fibrinogen) were investigated by thromboelastgram (Hellige GMBH, West Germany). Also, a magnitude of fibrin network which is formed at human blood coagulation was investigated by a scanning electron microscopy. Coagulation of human blood without treatment with Yoshixol was started within 1-2 min so that maximum level of coagulation occurred approximately within 15 min, followed by gradual decrease due to activation of fibrinolytic system. Immediately after thrombin is added on fibrinogen, viscosity of the sample started to increase, reached to a maximum level within 5-6 minutes. This maximum level was maintained for periods of 6 hours which was observed (referred FIG. 3a). However, when Yoshixol (4 μl) was added in 0.4 ml of whole blood or fibrinogen (160 mg/dl), onset time of blood coagulation and fibrin formation was delayed to 4-5 minutes and maximum aggregation time was occurred within 6-8 minutes. Maximum level of coagulation after the treatment was inhibited by 90% of control which level was maintained over 6 hours of investigation (referred FIG. 3b).

[3] = tested on: human blood (erythrocytes); test: Preservative effect on organs and tissues, stored human blood; format: cell-based; conditions: 5 ml human blood, 4 μl of Yoshixol
Experimental: After sampling 5 ml of human blood from a cubital vein, the blood sample was replaced into the vacuum tube with 10 ml capacity and was mixed in a gentle. The vacuum tubes were divided by two group; one group is nontreated and another treated with 4 μl of Yoshixol. Then, changes in morphological aspects of blood, which were stored at room temperature, were observed by a transmission type and scanning electron microscopes at 30 minutes, one hour and 1 month after the sampling. […] It was existed likely as a destroyed and aggregated mass. […] Many stomatocytes (lip-like erythrocyte) and echinocyte which is appeared at a lack of pyruvate kinase were observed.

## C=C1CC(C)(C)C=CC1=O [Yoshixol, 4,4-dimethyl-6-methylene-2-cyclohexen-1-one]
[1]; 1 ml human fibrinogen 160 mg/dl
  concentration of the total amino acids in fibrinogen: did not change
[1]
  increase of concentration of cystathione in fibrinogen: more than 5 times
[1]; existed before treatment
  glutamic acid and hydroxyl serine in fibrinogen: disappeared
[2]; Yoshixol 4 μl in 0.4 ml whole blood or fibrinogen (160 mg/dl)
  maximum aggregation time: 6 to 8 min
[2]; Yoshixol 4 μl in 0.4 ml whole blood or fibrinogen (160 mg/dl), untreated blood 1-2 min
  onset time of blood coagulation and fibrin formation: 4 to 5 min
[2]; Yoshixol 4 μl in 0.4 ml, level maintained over 6 hours
  inhibition of maximum level of coagulation: 90 % of control
[2]; morphological investigation, scanning electron microscopy
  rouleaux formation of erythrocyte and formation of fibrin net: did not occur
[3]; room temperature
  aggregation of erythrocytes: did not show an aggregation with fibrin networks
[3]; stored at room temperature
  cell membrane and intracellular organella of erythrocytes: preserved normally over 1 month

From patent US6710090B2, “Inhibitory or blocking agents of molecular generating and/or inducing functions” (priority 1994, dated 2004)
